These are literature values, as cited in paper PMC8623851, “The Structural Determinants for α1-Adrenergic/Serotonin Receptors Activity among Phenylpiperazine-Hydantoin Derivatives” (Molecules, 2021).

For one series, the target named is α1-receptor. More on the design: method as in PMID 31383628, PMID 29425815. To be noted: previously reported arylpiperazine hydantoin derivatives; cited from earlier work.
In another series the target is human 5-HT7b receptor (Homo sapiens, UniProt P34969). More on the design: expressed in transfected cells; host or cells: HEK-293; method as in PMID 31383628, PMID 29425815. To be noted: previously reported arylpiperazine hydantoin derivatives; read-out: Ki 5-HT7; cited from earlier work.
Chain of human 5-HT7b receptor (P34969 1-432): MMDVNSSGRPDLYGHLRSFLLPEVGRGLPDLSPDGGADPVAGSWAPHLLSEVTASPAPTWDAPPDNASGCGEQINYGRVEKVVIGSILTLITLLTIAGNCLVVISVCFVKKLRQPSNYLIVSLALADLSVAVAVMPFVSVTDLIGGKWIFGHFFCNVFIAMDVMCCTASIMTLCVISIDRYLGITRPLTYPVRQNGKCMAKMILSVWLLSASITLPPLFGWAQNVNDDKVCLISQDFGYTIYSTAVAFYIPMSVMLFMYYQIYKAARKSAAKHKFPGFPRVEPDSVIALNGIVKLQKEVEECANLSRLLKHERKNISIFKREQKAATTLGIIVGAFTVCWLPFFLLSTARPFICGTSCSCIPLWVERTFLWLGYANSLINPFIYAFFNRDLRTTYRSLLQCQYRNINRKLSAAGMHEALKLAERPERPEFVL
A further series addresses 5-HT1AR. Also on record: method as in PMID 31330215. To be noted: cited from earlier work.
A further series addresses 5-HT2AR. Also on record: method as in PMID 31330215. To be noted: cited from earlier work.
The target of another series is α1AR. Also on record: method as in PMID 31330215. To be noted: cited from earlier work.
Another series deals with α1BR. More on the design: method as in PMID 31330215. To be noted: cited from earlier work.
The next series deals with α1DR. More on the design: method as in PMID 31330215. To be noted: cited from earlier work.
The test system of the next series is behavioral models. Also on record: method as in PMID 31330215. To be noted: cited from earlier work.

What is called Ki is the dissociation constant of the complex between target and ligand, obtained from inhibition or displacement. In the case of `COc1ccc(C2(C)NC(=O)N(CC(O)CN3CCN(c4ccccc4OC)CC3)C2=O)cc1` (stereo not drawn) [Compound 3], the results for the Ki at α1-receptor and at human 5-HT7b receptor were 530 nM and 8 nM, respectively.
On to `COc1ccc(/C=C2\NC(=O)N(CC(O)CN3CCN(c4ccccc4OC)CC3)C2=O)cc1OC` (stereo not drawn) [Compound 1], for which the Ki at α1-receptor was 44.5 nM.
With `COc1ccccc1N1CCN(CCn2cnc3ccccc3c2=O)CC1` [ACH-000029], the Ki on 5-HT1AR is 14 nM; at 5-HT2AR, 500 nM; on α1AR, 0.07 nM; at α1BR, 4.6 nM; on α1DR, 1.1 nM. Moreover, the anxiolytic activity entry in the series on behavioral models is reported as “anxiolytic activity in behavioral models”.
